Experimental data reported in patent US12108762B2, “Methods of controlling crop pests using aromatic amide insect repellents, methods of making aromatic amide insect repellents, and novel aromatic amide insect repellents” (priority 2020, dated 2024).

Experiments:
[1] = biological target: T1, Gr33a (Drosophila melanogaster, UniProt Q9VKA5); experiment: Gustatory assay with receptor-modified (Gr33a knockdown) flies; type: in vivo, fruit flies
T1 construct: endogenous in cells; host or cells: whole living fruit flies (behavioural gustatory assay)
T1 sequence (Q9VKA5 1-475): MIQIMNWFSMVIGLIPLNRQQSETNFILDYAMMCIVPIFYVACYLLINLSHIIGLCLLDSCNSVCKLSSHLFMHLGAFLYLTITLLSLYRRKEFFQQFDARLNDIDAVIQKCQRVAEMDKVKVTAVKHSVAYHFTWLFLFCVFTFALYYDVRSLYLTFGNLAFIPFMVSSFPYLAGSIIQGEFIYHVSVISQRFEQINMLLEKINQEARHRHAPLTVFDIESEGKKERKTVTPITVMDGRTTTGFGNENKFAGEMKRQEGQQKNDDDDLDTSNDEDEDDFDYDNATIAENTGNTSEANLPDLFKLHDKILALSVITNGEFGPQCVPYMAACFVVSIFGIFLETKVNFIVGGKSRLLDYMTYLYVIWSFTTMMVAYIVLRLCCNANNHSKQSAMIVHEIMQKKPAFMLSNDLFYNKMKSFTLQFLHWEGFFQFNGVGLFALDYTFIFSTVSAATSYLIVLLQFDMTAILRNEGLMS
Procedure: (§1) The neurophysiological mechanisms of repellency were analyzed using receptors that are essential for DEET detection, Or83b and Gr33a. […] These receptors also play a role in the repellency of the most promising of the present aromatic amide compounds.

[2] = tested on: Drosophila melanogaster; experiment: Habituation assay (prior exposure, then olfactory and gustatory screens); type: in vivo; details: for habituation of fruit flies, overall (olfactory and gustatory assays): post-exposure; for repellency after prior exposure, gustatory assay: prior exposure 25% by weight, gustatory screen at 5 mM
Procedure: In the gustatory assay, the consumption of sugar (from a solution in a gel) treated at varying concentrations of the present repellent compounds was compared to the consumption of control-treated sugar. For the habituation assay, flies were tested over repeated exposures to the present repellent compounds to measure changes in behavioral preference for the compounds.
Flies were continuously monitored throughout their lifetime. In this assay, 3- to 5-day-old flies (70 male and 70 female) were selected and transferred to an empty fly food container 320 (FIG. 9). The polystyrene foam cap 310 was treated with 50 μL of 25% by weight of the present aromatic amide repellent in DMSO. A thin porous material 330 was placed around the treated cap 310, with a gap between the cap 310 and the material 330 so that the flies cannot touch the treated cap 310, but can only smell it. […] After the 20-hour period, the flies were screened in the olfactory assay and gustatory assays above. In the olfactory assay, the number of flies in the trap, the number of flies outside the trap, and the number of flies that died outside the trap were counted as described herein, and in the gustatory assay, the color of the flies' abdomens were determined and counted, as described herein.
(§2) The different assays assigned results as follows. For the single-choice olfactory assay, the numbers of flies were counted according to (1) those that entered the trap, (2) those that stayed outside the trap and lived, and (3) those that died outside the trap. For the two-choice olfactory assay, the numbers of flies were counted according to (1) those that entered the control trap, (2) those that entered the trap containing the repellent, (3) those that stayed outside of both traps and lived, and (4) those that died outside the traps. For the gustatory assay, the numbers of flies were counted according to those that had (1) a red-colored abdomen, (2) a blue-colored abdomen, (3) a purple abdomen, and (4) no added color to their abdomen. A nonparametric Mann-Whitney U test was used to compare the statistical differences between assays using DEET and the same assays using one of the present repellents for all trials.

[3] = tested on: Drosophila melanogaster; experiment: One-choice (single-trap) olfactory trap assay; type: in vivo; details: for repellency compared with DEET, one-choice trap assay: 25 μl of 25% by weight in DMSO on filter paper, 10% ACV attractant, 6 hours (FIG. 10) and 24 hours (FIG. 13); for fly death during the 6-hour screen: starved flies
Procedure: (§3) The D. melanogaster assays served as a model for SWD repellency. Forty different aromatic amides were studied at a 25% concentration by weight in DMSO, and the fruit fly chemosensory behaviors in response thereto were characterized. […]
(§4) Flies were monitored throughout their life cycle. Five-day-old flies (10 male and 10 females) were selected per assay, and starved for a predetermined length of time (e.g., 20 hours). After starvation, two different assays were used to study the olfactory related responses.
FIG. 7A is a diagram of a single-trap olfactory assay. Flies 105 were placed in a cylindrical chamber 100 containing a trap 110. The trap 110 was fashioned from an upturned 1.5 ml micro-centrifuge tube where the tapered end was trimmed away. A pipette tip 120 was cut to form a funnel and inserted into the bottom of the inverted micro-centrifuge tube 110. Then, filter paper 130 was placed between the pipette tip 120 and tip of micro-centrifuge tube 110. The pipette tip 120 was placed so that entering flies could not make physical contact with the filter paper 130. The filter paper 130 was placed in this manner so that when the filter paper 130 was treated with the repellent solution, the flies would only be able to smell at a distance and should be repelled even in the presence of an attractant.
A 25 μl sample of test compound at 25% concentration was applied to the filter paper 130 in order to provide the odor source. At the bottom of the trap 110, 125 μl of 10% apple cider vinegar (ACV) was placed as an attractant. Trials were conducted for 24 hours to visualize the number of flies 105 entering the trap 110. Typically, flies that entered the trap 110 contacted the liquid ACV and died in the ACV. Flies were counted and recorded at 4, 6, and 24 hours. No control other than DEET was used for this experiment, because it was a single trap, comparing the number of flies 105 repelled by the repellent versus the number of flies 105 interacting with the attractant (ACV).
as §2

[4] = tested on: Drosophila melanogaster; experiment: Two-choice trap olfactory assay; type: in vivo; details: for trap preference (control trap versus repellent-treated trap): DMSO control vs 25 μl of 25% by weight in DMSO
Procedure: as §3, §4
FIG. 7B is a diagram of a 2-choice trap olfactory assay. Two ACV traps 110a-b were prepared as above, in a cylinder 150 from upturned 1.5 ml micro-centrifuge tubes with the tapered end trimmed away, and a pipette 120a-b inserted into the inverted micro-centrifuge tube. In the cylinder 150, one trap 110a was treated with 25 μl of DMSO (as a control) on the filter paper 135, and the other trap 110b with the 25 μl of the 25% by weight solution of the test compound in DMSO applied to the filter paper 130. 125 μl of 10% ACV, diluted with water, was placed in the bottom of the traps 110a-b. Both traps contained filter paper as prepared in the one-trap assay. All trials were screened for 24 hours, and the number of flies 105 in each trap was counted. Positions of the traps (i.e., left or right, relative to the location of the chamber 150 in the room) were randomized. The number of flies 105 in each trap 110a and 110b were counted and recorded at 4, 6 and 24 hours.
as §2

[5] = biological target: T2, Or83b (Drosophila melanogaster, UniProt Q9VNB5); experiment: Olfactory assays with receptor-modified (Or83b knockdown) flies; type: in vivo, fruit flies; details: for effectiveness with receptor-modified flies, one-choice trap olfactory assay: compared with assays with unmodified flies; for Or83b and Gr33a requirement for detection of the compound: fruit flies; for Or83b and Gr33a requirement for detection of the compound / effectiveness as repellent with Or83b-modified flies above the knockdown temperature: olfactory assays; for effectiveness as repellent with Or83b-modified flies above the knockdown temperature: compared with unmodified flies
T2 construct: endogenous in cells; host or cells: whole living fruit flies (behavioural olfactory assays)
T2 sequence (Q9VNB5 1-486): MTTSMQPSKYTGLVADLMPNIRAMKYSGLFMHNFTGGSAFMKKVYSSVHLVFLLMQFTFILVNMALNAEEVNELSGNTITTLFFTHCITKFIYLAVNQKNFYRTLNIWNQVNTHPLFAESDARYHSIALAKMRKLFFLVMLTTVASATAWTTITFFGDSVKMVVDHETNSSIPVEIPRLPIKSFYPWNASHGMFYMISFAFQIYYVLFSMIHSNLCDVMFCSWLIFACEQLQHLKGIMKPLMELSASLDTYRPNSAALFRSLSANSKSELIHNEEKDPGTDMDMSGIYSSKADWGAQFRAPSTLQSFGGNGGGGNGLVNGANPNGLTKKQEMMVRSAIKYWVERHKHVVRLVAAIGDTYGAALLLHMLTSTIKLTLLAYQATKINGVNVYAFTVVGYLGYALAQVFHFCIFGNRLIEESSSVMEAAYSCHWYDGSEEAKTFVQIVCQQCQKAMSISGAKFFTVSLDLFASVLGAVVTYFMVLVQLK
Procedure: as §1

[6] = tested on: odorant receptor CquiOR136; details: southern house mosquito; cited from earlier work
[7] = tested on: mosquito; details: mosquito repellent; cited from earlier work
[8] = one-choice trap, 25% concentration
[9] = one-choice trap, 25% concentration, 6 hours

Row | SMILES | preference for repellent-treated food source post-knockdown, gustatory assay [1] | habituation of fruit flies, overall (olfactory and gustatory assays) [2] | repellency after prior exposure, gustatory assay [2] | repellency compared with DEET, one-choice trap assay [3] | ranking among repellents in the one-choice assay [3, 8] | fly death during the 6-hour screen [3, 9] | participation in choosing either trap ([4]; 25% by weight, 6 hours) | trap preference (control trap versus repellent-treated trap) ([4]; 6 hours) | effectiveness with receptor-modified flies, one-choice trap olfactory assay [5] | Or83b and Gr33a requirement for detection of the compound [5] | effectiveness as repellent with Or83b-modified flies above the knockdown temperature [5] | preference of receptor-modified flies for the compound, olfactory assays [5] | other results
1 | O=C(c1cccc(F)c1)N1CCCC1 [Compound 2mB, N-[m-fluorobenzoyl]pyrrolidine] | increased preference | demonstrated habituation in at least one assay | significantly less repellency | more effective than DEET | most effective repellents | no fly death | less overall participation | preference for the control trap | significantly less effective | required | significantly less effective | much higher preference | effectiveness with receptor-modified flies, gustatory assay ([1]; compared with unmodified flies): significantly less effective; repellency after prior exposure, one-choice trap olfactory assay ([2]; prior exposure to 25% by weight repellent for 20 hours, compared with earlier assay): worse at repelling insects after prior exposure; aversion (no flies entering the single-choice trap) [3, 8]: 100%; repellency [3, 9]: significant repellency; average number of flies that chose a trap in 6 hours ([4]; 25% by weight, 20 flies per assay, 6 hours): 4 flies
2 | CN1CCN(C(=O)c2ccccc2F)CC1 [Compound 2oE, 1-methyl-4-[o-fluorobenzoyl]piperazine] | increased preference | unable to habituate | statistically similar results | more effective than DEET | most effective repellents | some fly death | less overall participation | preference for the control trap | less effective, but statistically similar | required | significantly less effective | much higher preference | fly mortality ([3]; one-choice trap, 25% concentration, exposure in the gas phase): relatively insignificant; interaction with control trap in comparison with repellent-treated trap ([4]; 25% by weight, low participation): more flies interacted with the control trap
3 | CCN(CC)C(=O)c1cccc(C)c1 [DEET, N,N-diethyl-m-toluamide, reference compound] |  | demonstrated habituation in at least one assay | significantly less repellency |  |  |  |  |  |  |  |  |  | affinity for odorant receptor [6]: showing an affinity; duration of efficacy [7]: five; repellency after prior exposure, 2-choice olfactory assay ([2]; prior exposure to 25% by weight repellent (18-hour period as printed elsewhere in the source)): statistically similar
